Data from PubChem BioAssay AID248 (DTP/NCI, 2004).
Where “and” joins values, the source holds several entries; their conditions need not be identical. Identical values can stand only once. Toxic doses and inconclusive results are not listed. No stated cut-off is given here; in the data, active means T/C of 150% or more; inactive means T/C below 125%.

Tested on: L1210 leukemia ip in BDF1 mice, survival T/C
Assay: NCI In Vivo Anticancer Drug Screen. Data for tumor model L1210 Leukemia (intraperitoneal) in B6D2F1 (BDF1) mice
Settings: endpoint: mean survival time, higher = longer survival
Method in brief: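 Read-out is survival time, reported as the treated-group measurement over the vehicle-control measurement.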

[1] = dose: 25.0 mg/kg/injection, schedule: Q04DX003 (ip), vehicle: saline
[2] = dose: 12.5 mg/kg/injection, schedule: Q01DX009 (ip), vehicle: saline
[3] = dose: 25.0 mg/kg/injection, schedule: Q01DX009 (ip), vehicle: saline
[4] = dose: 50.0 mg/kg/injection, schedule: Q01DX009 (ip), vehicle: saline
[5] = dose: 50.0 mg/kg/injection, schedule: Q04DX003 (ip), vehicle: saline
[6] = dose: 100.0 mg/kg/injection, schedule: Q01DX001 (ip), vehicle: saline
[7] = dose: 100.0 mg/kg/injection, schedule: Q01DX001 (ip), vehicle: carboxymethylcellulose (CMC)
[8] = dose: 200.0 mg/kg/injection, schedule: Q01DX001 (ip), vehicle: carboxymethylcellulose (CMC)
[9] = dose: 400.0 mg/kg/injection, schedule: Q01DX001 (ip), vehicle: carboxymethylcellulose (CMC)
[10] = dose: 50.0 mg/kg/injection, schedule: Q01DX001 (ip), vehicle: carboxymethylcellulose (CMC)
[11] = dose: 100.0 mg/kg/injection, schedule: Q04DX002 (ip), vehicle: Klucel (hydroxypropylcellulose) (HPC)
[12] = dose: 200.0 mg/kg/injection, schedule: Q04DX002 (ip), vehicle: Klucel (hydroxypropylcellulose) (HPC)
[13] = dose: 400.0 mg/kg/injection, schedule: Q04DX002 (ip), vehicle: Klucel (hydroxypropylcellulose) (HPC)
[14] = dose: 100.0 mg/kg/injection, schedule: Q04DX003 (ip), vehicle: Klucel (hydroxypropylcellulose) (HPC)
[15] = dose: 100.0 mg/kg/injection, schedule: Q01DX009 (ip), vehicle: saline
[16] = dose: 200.0 mg/kg/injection, schedule: Q01DX009 (ip), vehicle: saline
[17] = dose: 100.0 mg/kg/injection, schedule: Q04DX003 (ip), vehicle: saline
[18] = dose: 100.0 mg/kg/injection, schedule: Q04DX003 (ip), vehicle: saline with Tween-80
[19] = dose: 200.0 mg/kg/injection, schedule: Q04DX003 (ip), vehicle: saline with Tween-80
[20] = dose: 200.0 mg/kg/injection, schedule: Q04DX003 (ip), vehicle: Klucel (hydroxypropylcellulose) (HPC)
[21] = dose: 400.0 mg/kg/injection, schedule: Q04DX003 (ip), vehicle: Klucel (hydroxypropylcellulose) (HPC)

Measured: T/C

O=C(O)C1C2CC3C(C2)C31 (stereo unspecified)
inactive: dose: 100.0 mg/kg/injection, schedule: Q04DX003 (ip), vehicle: other 97 % of control | dose: 200.0 mg/kg/injection, schedule: Q04DX003 (ip), vehicle: other 98 % of control | dose: 400.0 mg/kg/injection, schedule: Q04DX003 (ip), vehicle: other 88 % of control

CC1OC(O[C@H]2C[C@@H](O)[C@]3(CO)[C@H]4[C@H](O)C[C@]5(C)[C@@H](C6=CC(=O)OC6)CC[C@]5(O)[C@@H]4CC[C@]3(O)C2)C(O)C(O)C1O (stereo partly specified)
inactive: dose: 0.31 mg/kg/injection, schedule: Q01DX009 (ip), vehicle: saline 101 % of control | dose: 0.63 mg/kg/injection, schedule: Q01DX009 (ip), vehicle: saline 101 % of control | dose: 1.25 mg/kg/injection, schedule: Q01DX009 (ip), vehicle: saline 98 % of control | dose: 2.5 mg/kg/injection, schedule: Q01DX009 (ip), vehicle: saline 102 % of control and 108 % of control | dose: 12.5 mg/kg/injection, schedule: Q04DX003 (ip), vehicle: saline 92 % of control | [1] 103 % of control

NCC1CCCCC1
inactive: dose: 6.25 mg/kg/injection, schedule: Q01DX009 (ip), vehicle: saline 107 % of control | dose: 12.0 mg/kg/injection, schedule: Q04DX003 (ip), vehicle: saline 98 % of control | [2] 105 % of control | [3] 100 % of control | [1] 110 % of control | [4] 88 % of control | [5] 104 % of control

CS(=O)(=O)n1c(C(Cl)c2ccccc2)nc2ccccc21 (stereo unspecified)
inactive: [6] 102 % of control | dose: 200.0 mg/kg/injection, schedule: Q01DX001 (ip), vehicle: saline 104 % of control | dose: 400.0 mg/kg/injection, schedule: Q01DX001 (ip), vehicle: saline 120 % of control

COc1ccccc1CC(C)N (stereo unspecified)
inactive: dose: 5.0 mg/kg/injection, schedule: Q01DX001 (ip), vehicle: saline 100 % of control | dose: 10.0 mg/kg/injection, schedule: Q01DX001 (ip), vehicle: saline 102 % of control | dose: 20.0 mg/kg/injection, schedule: Q01DX001 (ip), vehicle: saline 102 % of control | dose: 20.0 mg/kg/injection, schedule: Q01DX009 (ip), vehicle: saline 106 % of control | dose: 40.0 mg/kg/injection, schedule: Q01DX001 (ip), vehicle: saline 96 % of control | dose: 40.0 mg/kg/injection, schedule: Q01DX009 (ip), vehicle: saline 97 % of control | dose: 80.0 mg/kg/injection, schedule: Q01DX009 (ip), vehicle: saline 111 % of control | [6] 103 % of control

Cc1ccnc(NC2=CC(=O)C(=O)c3ccccc32)c1
inactive: dose: 100.0 mg/kg/injection, schedule: Q01DX001 (ip), vehicle: other 93 % of control | dose: 200.0 mg/kg/injection, schedule: Q01DX001 (ip), vehicle: other 95 % of control | dose: 400.0 mg/kg/injection, schedule: Q01DX001 (ip), vehicle: other 103 % of control

NNc1c(Cl)c(F)c(Cl)c(F)c1Cl
inactive: [7] 104 % of control | [8] 97 % of control | [9] 104 % of control

CN(C)Cc1ccc(Cl)cc1C(O)(c1ccccc1)c1ccccc1
inactive: [10] 101 % of control | [7] 104 % of control | [8] 93 % of control | [9] 93 % of control

NC(=S)N/N=C\c1cccs1
inactive: [11] 96 % of control | [12] 107 % of control | [13] 102 % of control

COc1cccc(CCNC(=O)CCN2C(=O)c3ccccc3C2=O)c1
inactive: [10] 94 % of control | [7] 96 % of control | [8] 100 % of control | [9] 100 % of control

CCCCN1CC1CC (stereo unspecified)
inactive: dose: 25.0 mg/kg/injection, schedule: Q04DX003 (ip), vehicle: Klucel (hydroxypropylcellulose) (HPC) 105 % of control | dose: 50.0 mg/kg/injection, schedule: Q04DX003 (ip), vehicle: Klucel (hydroxypropylcellulose) (HPC) 95 % of control | dose: 100.0 mg/kg/injection, schedule: Q01DX001 (ip), vehicle: Klucel (hydroxypropylcellulose) (HPC) 108 % of control | [14] 103 % of control

CC(=O)N1CCCCC1
inactive: [10] 97 % of control | [7] 94 % of control | [15] 100 % of control | [8] 100 % of control | [16] 98 % of control

O=C(O)C(Cl)Cc1cnc[nH]1 (stereo unspecified)
inactive: [4] 100 % of control | [15] 100 % of control | [16] 103 % of control

CNC(C)Cc1ccc2c(c1)OCO2 (stereo unspecified)
inactive: [2] 105 % of control | [3] 98 % of control | [1] 106 % of control | [4] 100 % of control and 104 % of control | [5] 104 % of control | dose: 75.0 mg/kg/injection, schedule: Q04DX003 (ip), vehicle: saline 92 % of control | [17] 98 % of control

C=C(C)CCCC(C)C/C=N/NC(=O)CNC(=O)C=[N+]=[N-] (stereo unspecified) (tested in a mixture with another compound)
inactive: dose: 50.0 mg/kg/injection, schedule: Q01DX001 (ip), vehicle: water 100 % of control | dose: 100.0 mg/kg/injection, schedule: Q01DX001 (ip), vehicle: water 93 % of control | dose: 200.0 mg/kg/injection, schedule: Q01DX001 (ip), vehicle: water 91 % of control | dose: 400.0 mg/kg/injection, schedule: Q01DX001 (ip), vehicle: water 100 % of control

O=C(O)CCCCCC(=O)c1ccccc1
inactive: [11] 100 % of control | [12] 118 % of control | [13] 107 % of control

CCN(CC)CCOC(=O)C1C2CC3OC(=O)C1C3C2 (stereo unspecified)
inactive: [17] 108 % of control | dose: 200.0 mg/kg/injection, schedule: Q04DX003 (ip), vehicle: saline 95 % of control | dose: 400.0 mg/kg/injection, schedule: Q04DX003 (ip), vehicle: saline 92 % of control

COc1cc(C)c(O)c(C[P+](c2ccccc2)(c2ccccc2)c2ccccc2)c1
inactive: [18] 91 % of control | [19] 94 % of control

C/C=C(\Br)C(=O)O
inactive: dose: 100.0 mg/kg/injection, schedule: Q04DX002 (ip), vehicle: other 104 % of control | [18] 92 % of control | dose: 200.0 mg/kg/injection, schedule: Q04DX002 (ip), vehicle: other 104 % of control

O=C1CN=C(c2ccccn2)c2cc(Cl)ccc2N1CCO
inactive: dose: 100.0 mg/kg/injection, schedule: Q01DX009 (ip), vehicle: saline with Tween-80 106 % of control | [18] 96 % of control | dose: 200.0 mg/kg/injection, schedule: Q01DX009 (ip), vehicle: saline with Tween-80 101 % of control | [19] 112 % of control | dose: 400.0 mg/kg/injection, schedule: Q01DX009 (ip), vehicle: saline with Tween-80 98 % of control | dose: 400.0 mg/kg/injection, schedule: Q04DX003 (ip), vehicle: saline with Tween-80 91 % of control

CCCCCCC12CCC(O)C1(CCCCCCC(=O)O)O2 (stereo unspecified)
inactive: dose: 50.0 mg/kg/injection, schedule: Q04DX002 (ip), vehicle: saline 95 % of control | dose: 100.0 mg/kg/injection, schedule: Q04DX002 (ip), vehicle: saline 102 % of control | dose: 200.0 mg/kg/injection, schedule: Q04DX002 (ip), vehicle: saline 91 % of control

O=C(NCc1ccc([N+](=O)[O-])cc1)OCc1ccccc1
inactive: dose: 100.0 mg/kg/injection, schedule: Q01DX009 (ip), vehicle: Klucel (hydroxypropylcellulose) (HPC) 103 % of control | [14] 102 % of control | dose: 200.0 mg/kg/injection, schedule: Q01DX009 (ip), vehicle: Klucel (hydroxypropylcellulose) (HPC) 102 % of control | [20] 104 % of control | dose: 400.0 mg/kg/injection, schedule: Q01DX009 (ip), vehicle: Klucel (hydroxypropylcellulose) (HPC) 94 % of control | [21] 96 % of control

O=C1CC(c2ccccc2)C1(c1ccccc1)c1ccccc1 (stereo unspecified)
inactive: [14] 98 % of control | [20] 101 % of control | [21] 96 % of control

Cc1ccc(S(=O)(=O)Cc2ccccc2)cc1
inactive: [10] 103 % of control | [4] 103 % of control | [7] 103 % of control | [15] 99 % of control | [11] 100 % of control | [8] 103 % of control | [16] 94 % of control | [12] 106 % of control | [9] 97 % of control | [13] 95 % of control
